From paper PMC5674511, “Increase of enzyme activity through specific covalent modification with fragments” (Chemical Science, 2017)

Assays:
BtGH84 [1] = target: T1, BtGH84 (Bacteroides thetaiotaomicron, UniProt Q89ZI2, C441S/C675S/Y571C); assay: binding constant; method not stated in main text; conditions: read-out: BtGH84_TM / None
T1 construct: gene BT_4395; recombinant purified enzyme
T1 sequence (Q89ZI2 22-737 C441S/Y571C/C675S): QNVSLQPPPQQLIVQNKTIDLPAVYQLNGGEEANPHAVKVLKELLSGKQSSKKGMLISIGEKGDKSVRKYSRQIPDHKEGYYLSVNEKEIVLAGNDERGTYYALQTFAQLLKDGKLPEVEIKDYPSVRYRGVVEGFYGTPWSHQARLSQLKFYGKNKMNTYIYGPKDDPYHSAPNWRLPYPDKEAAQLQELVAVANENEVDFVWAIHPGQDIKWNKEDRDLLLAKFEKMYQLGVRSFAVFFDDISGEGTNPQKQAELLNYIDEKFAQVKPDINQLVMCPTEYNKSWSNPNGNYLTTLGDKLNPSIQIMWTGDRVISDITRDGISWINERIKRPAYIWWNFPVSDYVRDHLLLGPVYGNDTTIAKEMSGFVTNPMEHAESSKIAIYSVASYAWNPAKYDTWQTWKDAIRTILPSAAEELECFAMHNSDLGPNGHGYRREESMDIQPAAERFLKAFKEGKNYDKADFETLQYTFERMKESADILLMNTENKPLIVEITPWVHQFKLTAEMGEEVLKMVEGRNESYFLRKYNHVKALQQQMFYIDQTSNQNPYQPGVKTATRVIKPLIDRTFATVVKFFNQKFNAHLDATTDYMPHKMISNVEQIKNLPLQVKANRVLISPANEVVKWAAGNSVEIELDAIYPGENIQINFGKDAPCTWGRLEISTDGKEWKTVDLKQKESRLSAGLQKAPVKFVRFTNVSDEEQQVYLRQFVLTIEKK
Excerpt: (§1) binding constant; method not stated in main text on BtGH84

BtGH84 [2] = target: T2, BtGH84 (Bacteroides thetaiotaomicron, UniProt Q89ZI2); assay: binding constant; method not stated in main text; conditions: read-out: BtGH84 / None
T2 construct: gene BT_4395; recombinant purified enzyme
T2 sequence (Q89ZI2 22-737): T1 sequence (Q89ZI2 22-737 C441S/Y571C/C675S)
Excerpt: as §1

Compound: CCNC1=N[C@@H]2[C@@H](O)[C@H](O)[C@@H](CO)O[C@@H]2S1 [compound 2, thiamet-G]
- Kd (BtGH84 [1]): 52 ± 5.7 nM
- Kd (BtGH84 [2]): 50 nM
